“And” between values parts separate entries of the source, which are not always exact repeats. Equal values may be shown once.
What was measured:
[1] = tested on: HIV-infected patients under HAART regimen and presenting lipodystrophy syndrome; assay: Example 1: 3 months' administration to HIV-infected patients under HAART with lipodystrophy syndrome; format: in vivo, human; set-up: LDL / VLDL / COL. / TG / HDL: unit not given here; details: 4 grams/day
Procedure: Four HIV-infected patients under HAART regimen and presenting lipodystrophy syndrome were administered 4 grams/day of a tuna oil with a DHA content of 70%. After three months' administration of DHA to said patients, the following discoveries were made, even taking account of the short period of administration: • 1. […] Mean reduction of 56% in the plasma triglycerides number. • 3. Mean reduction of 25% in the total plasma cholesterol number. • 4. Mean increase of 9% in the plasma HDL cholesterol number. • 5. Mean reduction of 18% in the plasma LDL cholesterol number.

[2] = tested on: patients treated with DHA (lipodystrophy); assay: Example 2: 300-day monitoring of the four patients treated with DHA; format: in vivo, human; set-up: COL. / VLDL / TG / HDL / LDL: unit not given here; details: for COL. / HDL / LDL / TG / VLDL: individual patients 1-4
From the text: From the four patients treated with DHA at elevated dosages (1.5 g/day), all of them have been monitored for 300 days and, although notable fluctuations are observed, especially regarding to the triglicerids (see Table 2), after 300 days of monitoring, the reduction's mean in the number of triglycerids with respect to the basal level is 66% and for the cholesterol is 28.0%.
All patients have improved their fat redistribution, from the point of view subjective and according to the skill's criterion.

[3] = 3 months, mean of four patients
[4] = after 3 months of treatment, individual patients 1-4
[5] = 1.5 g/day, after 300 days of monitoring, four patients

CC/C=C\C/C=C\C/C=C\C/C=C\C/C=C\C/C=C\CCC(=O)O [DHA, docosahexaenoic acid]
Mean increase in the plasma HDL cholesterol number [1, 3]: 9% | Mean reduction in the plasma LDL cholesterol number [1, 3]: 18% | Mean reduction in the plasma triglycerides number [1, 3]: 56% | Mean reduction in the total plasma cholesterol number [1, 3]: 25% | COL. [1, 4]: 5.46 and 9.48 and 3.82 and 9.9 | HDL [1, 4]: 1.57 and 0.91 and 1.05 and 0.98 | LDL [1, 4]: 3.43 and 3.35 and 1.97 and 6.67 | TG [1, 4]: 1 and 10.66 and 1.73 and 3.41 | VLDL [1, 4]: 0.46 and 3.74 and 0.8 and 1.82 | drop of HDL cholesterol [2, 5]: 11.6% | reduction's mean in the cholesterol with respect to the basal level [2, 5]: 28.0% | reduction's mean in the number of triglycerids with respect to the basal level [2, 5]: 66% | COL. ([2]; 15 days of treatment): 6.37 and 9.74 and 3.92 and 8.73 | HDL ([2]; 15 days of treatment): 1.7 and 0.98 and 1.05 and 1.03 | LDL ([2]; 15 days of treatment): 4.14 and 6.07 and 1.86 and 5.35 | TG ([2]; 15 days of treatment): 1.16 and 5.98 and 3.11 and 5.18 | VLDL ([2]; 15 days of treatment): 0.53 and 2.61 and 1.01 and 2.35 | COL. ([2]; 30 days of treatment): 6.16 and 8.4 and 4.07 and 8.5 | HDL ([2]; 30 days of treatment): 1.79 and 0.86 and 1.06 and 1.16 | LDL ([2]; 30 days of treatment): 3.7 and 4.3 and 2.0 and 5.0 | TG ([2]; 30 days of treatment): 1.35 and 6.9 and 3.09 and 5.74 | VLDL ([2]; 30 days of treatment): 0.62 and 3.18 and 0.97 and 2.26 | COL. ([2]; 60 days of treatment): 5.46 and 9.48 and 3.82 and 9.9 | HDL ([2]; 60 days of treatment): 1.57 and 0.91 and 1.05 and 0.98 | LDL ([2]; 60 days of treatment): 3.43 and 3.35 and 1.97 and 6.67 | TG ([2]; 60 days of treatment): 1 and 10.66 and 1.73 and 3.41 | VLDL ([2]; 60 days of treatment): 0.46 and 3.74 and 0.8 and 1.82 | COL. ([2]; 120 days of treatment): 5.49 and 8.24 and 3.47 and 13.63 | HDL ([2]; 120 days of treatment): 1.56 and 1.08 and 1.16 and 0.7 | LDL ([2]; 120 days of treatment): 3.26 and 4.6 and 1.61 and 1.46 | TG ([2]; 120 days of treatment): 1.45 and 6.36 and 1.51 and 31.7 | VLDL ([2]; 120 days of treatment): 0.67 and 2.56 and 0.7 and 9.67 | COL. ([2]; 180 days of treatment): 6.15 and 9.64 and 3.76 and 13.21 | HDL ([2]; 180 days of treatment): 1.56 and 1.04 and 0.94 and 1.48 | LDL ([2]; 180 days of treatment): 3.38 and 2.3 and 1.5 and 2.09 | TG ([2]; 180 days of treatment): 2.63 and 15.75 and 2.87 and 16.37 | VLDL ([2]; 180 days of treatment): 1.21 and 4.38 and 132 and 3.97 | COL. ([2]; 240 days of treatment): 5.7 and 8.1 and 4.04 and 5.33 | HDL ([2]; 240 days of treatment): 1.67 and 0.98 and 1.09 and 1.17 | LDL ([2]; 240 days of treatment): 3.3 and 4.93 and 2.1 and 3.16 | TG ([2]; 240 days of treatment): 1.59 and 5.36 and 1.85 and 2.18 | VLDL ([2]; 240 days of treatment): 0.73 and 2.12 and 0.85 and 1 | COL. ([2]; 300 days of treatment): 6.01 and 9.3 and 4.34 and 4.27 | HDL ([2]; 300 days of treatment): 1.23 and 1.08 and 0.89 and 1.22 | LDL ([2]; 300 days of treatment): 4.06 and 5.31 and 2.7 and 2.42 | TG ([2]; 300 days of treatment): 1.57 and 7.21 and 1.62 and 1.36 | VLDL ([2]; 300 days of treatment): 0.72 and 2.92 and 0.75 and 0.63
